Test results as given in ChEMBL document CHEMBL1687748 (Antimicrob Agents Chemother, 2009).

Assays:
Assay type in all cases: functional
[1] = test system: Bacillus anthracis; test: Growth rate constant for compound-sensitive toxin and capsule gene-deficient Bacillus anthracis Sterne in hollow-fiber pharmacodynamic infection model at 100 mg administered as continuous infusion by Bayesian method
[2] = test system: Bacillus anthracis; test: Growth rate constant of vegetative-phase cells going to spore phase in toxin and capsule gene-deficient Bacillus anthracis Sterne in hollow-fiber pharmacodynamic infection model at 200 mg, qd by Bayesian method
[3] = test system: Bacillus anthracis; test: Total spore counts of toxin and capsule gene-deficient Bacillus anthracis Sterne in hollow-fiber pharmacodynamic infection model at 250 mg, qd by Bayesian method
[4] = test system: Bacillus anthracis; test: Growth rate constant for compound-sensitive toxin and capsule gene-deficient Bacillus anthracis Sterne in hollow-fiber pharmacodynamic infection model at 150 mg administered as continuous infusion by Bayesian method
[5] = test system: Bacillus anthracis; test: Total sensitive organism counts of toxin and capsule gene-deficient Bacillus anthracis Sterne in hollow-fiber pharmacodynamic infection model administered as continuous infusion
[6] = test system: Bacillus anthracis; test: Growth rate constant for compound-sensitive toxin and capsule gene-deficient Bacillus anthracis Sterne in hollow-fiber pharmacodynamic infection model at 100 mg, qd by Bayesian method
[7] = test system: Bacillus anthracis; test: Growth rate constant for compound-sensitive toxin and capsule gene-deficient Bacillus anthracis Sterne in hollow-fiber pharmacodynamic infection model at 250 mg administered as continuous infusion by Bayesian method
[8] = test system: Bacillus anthracis; test: Growth rate constant of spore-phase cells going to vegetative phase in toxin and capsule gene-deficient Bacillus anthracis Sterne in hollow-fiber pharmacodynamic infection model at 200 mg, qd by Bayesian method
[9] = test system: Bacillus anthracis; test: Total spore counts of toxin and capsule gene-deficient Bacillus anthracis Sterne in hollow-fiber pharmacodynamic infection model at 150 mg administered as continuous infusion by Bayesian method
[10] = test system: Bacillus anthracis; test: Total spore counts of toxin and capsule gene-deficient Bacillus anthracis Sterne in hollow-fiber pharmacodynamic infection model at 200 mg administered as continuous infusion by Bayesian method
[11] = test system: Bacillus anthracis; test: Total spore counts of toxin and capsule gene-deficient Bacillus anthracis Sterne in hollow-fiber pharmacodynamic infection model administered as continuous infusion
[12] = test system: Bacillus anthracis; test: Growth rate constant of spore-phase cells going to vegetative phase in toxin and capsule gene-deficient Bacillus anthracis Sterne in hollow-fiber pharmacodynamic infection model administered for every 24 hrs
[13] = test system: Bacillus anthracis; test: Growth rate constant of vegetative-phase cells going to spore phase in toxin and capsule gene-deficient Bacillus anthracis Sterne in hollow-fiber pharmacodynamic infection model at 100 mg, qd by Bayesian method
[14] = test system: Bacillus anthracis; test: Kill rate constant for compound-sensitive toxin and capsule gene-deficient Bacillus anthracis Sterne in hollow-fiber pharmacodynamic infection model at 150 mg administered as continuous infusion by Bayesian method
[15] = test system: Bacillus anthracis; test: Kill rate constant for compound-sensitive toxin and capsule gene-deficient Bacillus anthracis Sterne in hollow-fiber pharmacodynamic infection model at 100 mg, qd by Bayesian method
[16] = test system: Bacillus anthracis; test: Total spore counts of toxin and capsule gene-deficient Bacillus anthracis Sterne in hollow-fiber pharmacodynamic infection model at 100 mg administered as continuous infusion by Bayesian method
[17] = test system: Bacillus anthracis; test: Total sensitive organism counts of toxin and capsule gene-deficient Bacillus anthracis Sterne in hollow-fiber pharmacodynamic infection model at 250 mg administered as continuous infusion by Bayesian method
[18] = test system: Bacillus anthracis; test: Kill rate constant for compound-sensitive toxin and capsule gene-deficient Bacillus anthracis Sterne in hollow-fiber pharmacodynamic infection model administered as continuous infusion
[19] = test system: Bacillus anthracis; test: Total sensitive organism counts of toxin and capsule gene-deficient Bacillus anthracis Sterne in hollow-fiber pharmacodynamic infection model at 150 mg, qd by Bayesian method
[20] = test system: Bacillus anthracis; test: Total spore counts of toxin and capsule gene-deficient Bacillus anthracis Sterne in hollow-fiber pharmacodynamic infection model at 200 mg, qd by Bayesian method
[21] = test system: Bacillus anthracis; test: Hill constant for compound-sensitive toxin and capsule gene-deficient Bacillus anthracis Sterne in hollow-fiber pharmacodynamic infection model at 200 mg, qd by Bayesian method
[22] = test system: Bacillus anthracis; test: Kill rate constant for compound-sensitive toxin and capsule gene-deficient Bacillus anthracis Sterne in hollow-fiber pharmacodynamic infection model at 250 mg administered as continuous infusion by Bayesian method
[23] = test system: Bacillus anthracis; test: Total sensitive organism counts of toxin and capsule gene-deficient Bacillus anthracis Sterne in hollow-fiber pharmacodynamic infection model at 100 mg administered as continuous infusion by Bayesian method
[24] = test system: Bacillus anthracis; test: Growth rate constant of vegetative-phase cells going to spore phase in toxin and capsule gene-deficient Bacillus anthracis Sterne in hollow-fiber pharmacodynamic infection model at 150 mg, qd by Bayesian method
[25] = test system: Bacillus anthracis; test: Total spore counts of toxin and capsule gene-deficient Bacillus anthracis Sterne in hollow-fiber pharmacodynamic infection model at 150 mg, qd by Bayesian method
[26] = test system: Bacillus anthracis; test: Hill constant for compound-sensitive toxin and capsule gene-deficient Bacillus anthracis Sterne in hollow-fiber pharmacodynamic infection model at 250 mg, qd by Bayesian method
[27] = test system: Bacillus anthracis; test: Total spore counts of toxin and capsule gene-deficient Bacillus anthracis Sterne in hollow-fiber pharmacodynamic infection model at 50 mg, qd by Bayesian method
[28] = test system: Bacillus anthracis; test: Growth rate constant of spore-phase cells going to vegetative phase in toxin and capsule gene-deficient Bacillus anthracis Sterne in hollow-fiber pharmacodynamic infection model at 100 mg, qd by Bayesian method
[29] = test system: Bacillus anthracis; test: Total spore counts of toxin and capsule gene-deficient Bacillus anthracis Sterne in hollow-fiber pharmacodynamic infection model at 100 mg, qd by Bayesian method
[30] = test system: Bacillus anthracis; test: Hill constant for compound-sensitive toxin and capsule gene-deficient Bacillus anthracis Sterne in hollow-fiber pharmacodynamic infection model at 200 mg administered as continuous infusion by Bayesian method
[31] = test system: Bacillus anthracis; test: Kill rate constant for compound-sensitive toxin and capsule gene-deficient Bacillus anthracis Sterne in hollow-fiber pharmacodynamic infection model at 250 mg, qd by Bayesian method
[32] = test system: Bacillus anthracis; test: Kill rate constant for compound-sensitive toxin and capsule gene-deficient Bacillus anthracis Sterne in hollow-fiber pharmacodynamic infection model at 100 mg administered as continuous infusion by Bayesian method
[33] = test system: Bacillus anthracis; test: Hill constant for compound-sensitive toxin and capsule gene-deficient Bacillus anthracis Sterne in hollow-fiber pharmacodynamic infection model at 150 mg administered as continuous infusion by Bayesian method
[34] = test system: Bacillus anthracis; test: Hill constant for compound-sensitive toxin and capsule gene-deficient Bacillus anthracis Sterne in hollow-fiber pharmacodynamic infection model at 250 mg administered as continuous infusion by Bayesian method
[35] = test system: Bacillus anthracis; test: Growth rate constant of spore-phase cells going to vegetative phase in toxin and capsule gene-deficient Bacillus anthracis Sterne in hollow-fiber pharmacodynamic infection model at 200 mg administered as continuous infusion by Bayesian method
[36] = test system: Bacillus anthracis; test: Hill constant for compound-sensitive toxin and capsule gene-deficient Bacillus anthracis Sterne in hollow-fiber pharmacodynamic infection model administered as continuous infusion
[37] = test system: Bacillus anthracis; test: Total sensitive organism counts of toxin and capsule gene-deficient Bacillus anthracis Sterne in hollow-fiber pharmacodynamic infection model at 100 mg, qd by Bayesian method

COc1c(N2C[C@@H]3CCCN[C@@H]3C2)c(F)cc2c(=O)c(C(=O)O)cn(C3CC3)c12 [MOXIFLOXACIN]
Activity [1]: 8.26 h⁻¹
Activity [2]: 2.09 h⁻¹
CFU/ml [3]: 2360000
Activity [4]: 8.25 h⁻¹
CFU/ml [5]: 38500000
Activity [6]: 6.57 h⁻¹
Activity [7]: 8.25 h⁻¹
Activity [8]: 1.01 h⁻¹
CFU/ml [9]: 1880000
CFU/ml [10]: 1870000
CFU/ml [11]: 1880000
Activity [12]: 7.31 h⁻¹
Activity [13]: 1.38 h⁻¹
Activity [14]: 8.28 h⁻¹
Activity [15]: 7.48 h⁻¹
CFU/ml [16]: 1860000
CFU/ml [17]: 21600000
Activity [18]: 6.41 h⁻¹
CFU/ml [19]: 21500000
CFU/ml [20]: 2420000
Activity [21]: 1 h⁻¹
Activity [22]: 8.28 h⁻¹
CFU/ml [23]: 20600000
Activity [24]: 0.0657 h⁻¹
CFU/ml [25]: 1890000
Activity [26]: 1 h⁻¹
CFU/ml [27]: 1860000
Activity [28]: 25.9 h⁻¹
CFU/ml [29]: 1900000
Activity [30]: 30 h⁻¹
Activity [31]: 4.48 h⁻¹
Activity [32]: 8.28 h⁻¹
Activity [33]: 30 h⁻¹
Activity [34]: 30 h⁻¹
Activity [35]: 6.65 h⁻¹
Activity [36]: 5.93 h⁻¹
CFU/ml [37]: 28000000
